From publication PMC8747035, “Design, Synthesis, and Biological Evaluation of 5,6,7,8-Tetrahydrobenzo[4,5]thieno[2,3-d]pyrimidines as Microtubule Targeting Agents” (Molecules, 2022) come the findings set out here.

One data set deals with MALME-3M. Description: NCI-60 growth inhibition, MALME-3M. The data set is classed as cell-based. Particulars: Homo sapiens, Melanoma. From the text: (§1) Compound 4 had better potency than the lead compound 1 in 50 cancer cell lines. (better by 5 to 6-fold in leukemia, 2 to 17-fold in NSCLC, 2 to 6-fold in colon cancer, 2 to 5-fold in CNS cancer, 2 to 25-fold in melanoma, 2 to 5-fold in ovarian cancer, 2 to 9-fold in renal cancer, 2 to 5-fold in prostate cancer, and 2 to 6-fold in breast cancer compared to lead compound 1).

In the next data set the test system is MDA-MB-468. The experiment in a line: NCI-60 growth inhibition, MDA-MB-468. It counts as cell-based. The conditions noted are these: Homo sapiens, Breast Cancer.
From the text: as §1

Data set [1] has as its system NCI-60 cancer cell line panel. Description: NCI-60 cancer cell line panel (overall). It counts as cell-based. The conditions noted are these: Homo sapiens; 40 most sensitive of the 60 cancer cell lines.
From the text: as §1

The subject of another data set is Bovine brain tubulin. Description: Inhibition of purified tubulin assembly (turbidity). Particulars: 10 µM tubulin, 30 °C; read-out: Inhibition of Tubulin Assembly IC50 ± SD. It counts as biochemical. The procedure: Bovine brain tubulin was purified as described previously. The tubulin assembly assay has been described in detail. Briefly, 1.0 mg/mL of tubulin (10 µM) was preincubated for 15 min at 30 °C in 0.8 M monosodium glutamate (pH of 2 M stock solution adjusted to 6.6 with HCl), varying compound concentrations and 4% (v/v) DMSO as compound solvent. After the preincubation, the reaction mixtures were placed on ice and 0.4 mM GTP was added. The reaction mixtures were transferred to cuvettes at 0 °C in a recording spectrophotometer equipped with an electronic temperature controller. After baselines were established, the temperature was elevated over about 30 s to 30 °C, and changes in turbidity were monitored at 350 nm for 20 min. The compound concentration that caused a 50% reduction in increase in turbidity, interpolated from the values obtained with defined compound concentrations, was defined as the IC50 value. The assay to measure inhibition of [^3H]colchicine binding was described in detail previously. Briefly, 0.1 mg/mL (1.0 µM) tubulin was incubated at 37 °C with 5.0 µM [3H]colchicine and potential inhibitors at 5.0 µM. Incubation was for 10 min, at which point the reaction had reached 40–60% of the maximum colchicine that can be bound in reaction mixtures without inhibitor. The [^3H]colchicine was a product of PerkinElmer, USA. CA-4 was a generous gift of Dr. G. R. Pettit, Arizona State University.

The subject of a further data set is CAKI-1. Description: NCI-60 growth inhibition, CAKI-1. It counts as cell-based. The conditions noted are these: Homo sapiens, Renal Cancer.
From the text: as §1

The test system of the next data set is SNB-75. Description: NCI-60 growth inhibition, SNB-75. The data set is classed as cell-based. The conditions noted are these: Homo sapiens, CNS Cancer.
From the text: as §1

The test system of the next data set is BT-549. Description: NCI-60 growth inhibition, BT-549. The data set is classed as cell-based. The conditions noted are these: Homo sapiens, Breast Cancer.
From the text: as §1

The test system of the next data set is MDA-MB-435 tumors. Description: MDA-MB-435 xenograft model. Particulars: 75 mg/kg i.p. 3 × a week. It counts as in vivo, nude mice. The method, then:
Compound 4 was selected for further evaluation in an in vivo xenograft mouse study in light of its nanomolar potency in vitro in the NCI-60 cancer cell line panel and its potent microtubule depolymerization activity. The in vivo effects of 4 were tested in the MDA-MB-435 xenograft model (Figure 5).
MDA-MB-435 tumor fragments were implanted s.c. into the flanks of female nude mice. […] Compound 4 was dissolved in a 50:50 Cremophor EL/DMSO mixture and further dissolved in PBS for a final concentration of 10:10:80 Cremophor EL:DMSO:PBS (v/v). […] Tumor volumes and mouse weights were measured 2–3 times a week. A two-way ANOVA with Dunnett’s post-hoc tests including all treatment groups in the trial was used to determine significant differences in tumor volumes between drug-treated and untreated control groups on each measurement day. These animal studies were performed at the University of Texas Health Science Center in San Antonio in compliance with an approved Institutional Animal Care and Use protocol.
MDA-MB-435 tumors were implanted into the flanks of nude mice and allowed to grow until they reached a volume of ~200 mm^3. […] Tumor volumes and mouse weights were measured 2–3 times a week. Statistical significance was evaluated by two-way ANOVA (time vs. drug) with Dunnett’s post-hoc tests. A statistically significant difference in tumor volume was detected on day 14 between mice treated with 4 (* p = 0.0384) and untreated control tumors.

For a further data set, the system named is SK-OV-3. Description: NCI-60 growth inhibition, SK-OV-3. It counts as cell-based. Particulars: Homo sapiens, Ovarian Cancer.
From the text: as §1

For the next data set, the system named is HCC-2998. The experiment in a line: NCI-60 growth inhibition, HCC-2998. The data set is classed as cell-based. The conditions noted are these: Homo sapiens, Colon Cancer.
From the text: as §1

Another data set has as its system K-562. The experiment in a line: NCI-60 growth inhibition, K-562. It counts as cell-based. The conditions noted are these: Homo sapiens, K562, Leukemia.
From the text: as §1

Another data set relates to HCT-116. The experiment in a line: NCI-60 growth inhibition, HCT-116. It counts as cell-based. The conditions noted are these: Homo sapiens, Colon Cancer.
From the text: as §1

The subject of another data set is SF-539. The experiment in a line: NCI-60 growth inhibition, SF-539. The data set is classed as cell-based. The conditions noted are these: Homo sapiens, CNS Cancer.
From the text: as §1

The subject of the next data set is KM12. Description: NCI-60 growth inhibition, KM12. The conditions noted are these: Homo sapiens, Colon Cancer. It counts as cell-based.
From the text: as §1

The next data set has as its system RPMI-8226. The experiment in a line: NCI-60 growth inhibition, RPMI-8226. It counts as cell-based. The conditions noted are these: Homo sapiens, Leukemia.
From the text: as §1

The next data set has as its system EKVX. The experiment in a line: NCI-60 growth inhibition, EKVX. The conditions noted are these: Homo sapiens, NSCLC. The data set is classed as cell-based.
From the text: as §1

A further data set has as its system SK-OV-3 cells. Description: SRB assay in SK-OV-3 cells. The data set is classed as cell-based. The conditions noted are these: Homo sapiens, read-out: IC50 ± SD in SK-OV-3 Cells. The procedure: Comparison of the IC50 values in the parental SK-OV-3 and genetically manipulated SK-OV-3 MDR1-M6/6 cell line allows for the calculation of a relative resistance value, designated Rr. This value is calculated by dividing the IC50 value obtained in the Pgp-expressing SK-OV-3 MDR1-M6/6 cells by the IC50 obtained in the parental SK-OV-3 cells.
The antiproliferative and cytotoxic effects of the compounds in cancer cells were evaluated using the SRB assay as previously described. MDA-MB-435 cells were obtained from the Lombardi Cancer Center of Georgetown University (Washington, DC, USA). SK-OV-3 and HeLa cells were purchased from ATCC. Details about the generation of the SK-OV-3 MDR1-M6/6 and HeLa WTβIII cells were described previously. The IC50 values represent an average of three independent experiments, each conducted using triplicate points.
HeLa, A-10, SK-OV-3, and SK-OV-3 MDR1-M6/6 cells were grown in Basal Medium Eagle (Sigma-Aldrich, St. Louis, MO, USA) supplemented with 10% FBS (Hyclone, GE Life Sciences, Logan, UT, USA) 1% GlutaMAX (Gibco, Life Technologies, Waltham, MA, USA) and 50 µg/mL gentamycin (Life Technologies, USA). HeLa WTβIII cells were grown in Dulbecco’s Modified Eagle Medium (Life Technologies) supplemented with 10% FBS and 50 µg/mL gentamycin. MDA-MB-435 cells were maintained in Improved Minimum Essential Medium (Life Technologies) supplemented with 10% FBS and 25 µg/mL gentamycin. All cells were grown at 37 °C in a humidified environment with 5% CO2.
In general terms: Sulforhodamine B stains cellular protein and so reports cell mass.

Consider `COc1ccc(N(C)c2nc(N)nc3sc4c(c23)CCCC4)cc1` [Compound 4, N4-(4-methoxyphenyl)-N4-methyl-5,6,7,8-tetrahydrobenzo[4,5]thieno[2,3-d]pyrimidine-2,4-diamine], for which the GI50 with MALME-3M is 12.2 nM; in the data set with MDA-MB-468 it was 6.05 nM; in [1], around 10 nM; in the data set with CAKI-1, 16.8 nM; in the data set with SNB-75, 8.42 nM; with BT-549 it was 17.5 nM. Also, the GI50 is 15.6 nM with SK-OV-3; 11.8 nM with HCC-2998; 2.72 nM with K-562; 5.46 nM in the data set with HCT-116; 7.93 nM in the data set with SF-539; 13.4 nM in the data set with KM12. Further, the GI50 was 12.7 nM in the data set with RPMI-8226 and 11.2 nM in the data set with EKVX. Further, the IC50 in the data set on Bovine brain tubulin was found to be 820 ± 40 nM; in the data set on SK-OV-3 cells it was 11.8 ± 1.1 nM. Moreover, the “Antitumor effects on MDA-MB-435 tumor volume vs control” value with MDA-MB-435 tumors (day 14) was “statistically significant antitumor effects”. Also, the Weight loss result with MDA-MB-435 tumors (nude mice) is “moderate weight loss”.

As usually defined, the GI50 is the concentration giving 50% growth inhibition. Lower therefore signals more potent growth inhibition. Usually IC50 stands for the point on the concentration scale where inhibition reaches its midpoint.
